Several values for one entry are separate records, joined by “and”; a condition that tells them apart may be missing. Equal values may be shown once. Inconclusive results and toxic doses are left out.
Tested on: BDF1 mice, B16 melanoma ip, median survival T/C
Assay: NCI In Vivo Anticancer Drug Screen. Data for tumor model B16 Melanoma (intraperitoneal) in B6D2F1 (BDF1) mice
Conditions: endpoint: median survival time, higher = longer survival
Outline: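 Antitumor activity is assessed in mice bearing a transplanted tumor, with survival or tumor size compared against vehicle-dosed controls and expressed as T/C.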

[1] = dose: 18.75 mg/kg/injection, schedule: Q01DX009 (ip), vehicle: saline with Tween-80
[2] = dose: 37.5 mg/kg/injection, schedule: Q01DX009 (ip), vehicle: saline with Tween-80
[3] = dose: 12.5 mg/kg/injection, schedule: Q01DX009 (ip), vehicle: saline
[4] = dose: 25.0 mg/kg/injection, schedule: Q01DX009 (ip), vehicle: saline
[5] = dose: 100.0 mg/kg/injection, schedule: Q01DX009 (ip), vehicle: Klucel (hydroxypropylcellulose) (HPC)
[6] = dose: 200.0 mg/kg/injection, schedule: Q01DX009 (ip), vehicle: Klucel (hydroxypropylcellulose) (HPC)
[7] = dose: 400.0 mg/kg/injection, schedule: Q01DX009 (ip), vehicle: Klucel (hydroxypropylcellulose) (HPC)
[8] = dose: 25.0 mg/kg/injection, schedule: Q01DX009 (ip), vehicle: Klucel (hydroxypropylcellulose) (HPC)
[9] = dose: 50.0 mg/kg/injection, schedule: Q01DX009 (ip), vehicle: Klucel (hydroxypropylcellulose) (HPC)
[10] = dose: 6.25 mg/kg/injection, schedule: Q01DX009 (ip), vehicle: saline
[11] = dose: 50.0 mg/kg/injection, schedule: Q01DX009 (ip), vehicle: saline

## O=C(NN=C1CCCCC1)c1ccccc1
[1]
  T/C: 97 % of control
[2]
  T/C: 100 % of control
dose: 75.0 mg/kg/injection, schedule: Q01DX009 (ip), vehicle: saline with Tween-80
  T/C: 105 % of control and 107 % of control

## CCC1CC2CN(CCc3c([nH]c4ccccc34)C(C(=O)OC)(c3cc4c(cc3OC)N(C)C3C(O)(C(=O)OC)C(OC(C)=O)C5(CC)C=CCN6CCC43C65)C2)C1 (stereo not given)
dose: 0.05 mg/kg/injection, schedule: Q01DX009 (ip), vehicle: Klucel (hydroxypropylcellulose) (HPC)
  T/C: 111 % of control
dose: 0.06 mg/kg/injection, schedule: Q01DX009 (ip), vehicle: water
  T/C: 109 % of control and 110 % of control
dose: 0.13 mg/kg/injection, schedule: Q01DX009 (ip), vehicle: water
  T/C: 105 % of control and 114 % of control
dose: 0.25 mg/kg/injection, schedule: Q01DX009 (ip), vehicle: water
  T/C: 173 % of control
dose: 0.4 mg/kg/injection, schedule: Q01DX009 (ip), vehicle: Klucel (hydroxypropylcellulose) (HPC)
  T/C: 192 % of control
dose: 0.5 mg/kg/injection, schedule: Q01DX009 (ip), vehicle: water
  T/C: 210 % of control
dose: 0.5 mg/kg/injection, schedule: Q04DX003 (ip), vehicle: water
  T/C: 166 % of control
dose: 0.8 mg/kg/injection, schedule: Q01DX009 (ip), vehicle: Klucel (hydroxypropylcellulose) (HPC)
  T/C: 224 % of control
dose: 1.0 mg/kg/injection, schedule: Q01DX009 (ip), vehicle: water
  T/C: 151 % of control and 163 % of control and 174 % of control
dose: 1.0 mg/kg/injection, schedule: Q04DX003 (ip), vehicle: water
  T/C: 206 % of control
dose: 1.6 mg/kg/injection, schedule: Q01DX009 (ip), vehicle: Klucel (hydroxypropylcellulose) (HPC)
  T/C: 229 % of control
dose: 2.0 mg/kg/injection, schedule: Q01DX009 (ip), vehicle: water
  T/C: 170 % of control and 178 % of control
dose: 2.0 mg/kg/injection, schedule: Q04DX003 (ip), vehicle: water
  T/C: 234 % of control

## Cc1cc(C)c([I+]c2c(C)cc(C)cc2C)c(C)c1
dose: 1.5 mg/kg/injection, schedule: Q01DX009 (ip), vehicle: suspension in saline
  T/C: 103 % of control
dose: 3.0 mg/kg/injection, schedule: Q01DX009 (ip), vehicle: Klucel (hydroxypropylcellulose) (HPC)
  T/C: 91 % of control
dose: 3.0 mg/kg/injection, schedule: Q01DX009 (ip), vehicle: suspension in saline
  T/C: 95 % of control
dose: 6.0 mg/kg/injection, schedule: Q01DX009 (ip), vehicle: Klucel (hydroxypropylcellulose) (HPC)
  T/C: 91 % of control
dose: 6.0 mg/kg/injection, schedule: Q01DX009 (ip), vehicle: suspension in saline
  T/C: 100 % of control

## CCN1C(=O)CN(CCN2CC(=O)N(c3ccccc3)C2=S)C1=S
[1]
  T/C: 112 % of control
[2]
  T/C: 120 % of control

## OCCN1CCN(CCCN2c3ccccc3Sc3cccnc32)CC1
dose: 9.37 mg/kg/injection, schedule: Q01DX009 (ip), vehicle: saline
  T/C: 89 % of control
[3]
  T/C: 93 % of control
dose: 18.75 mg/kg/injection, schedule: Q01DX009 (ip), vehicle: saline
  T/C: 107 % of control
[4]
  T/C: 113 % of control
dose: 37.5 mg/kg/injection, schedule: Q01DX009 (ip), vehicle: saline
  T/C: 105 % of control
dose: 75.0 mg/kg/injection, schedule: Q01DX009 (ip), vehicle: saline
  T/C: 102 % of control

## O=[N+]([O-])c1ccc(OCc2ccc(S(=O)(=O)F)c(Cl)c2)c(Cl)c1
[5]
  T/C: 102 % of control
[6]
  T/C: 100 % of control
[7]
  T/C: 97 % of control

## CCCCNC(=O)C1C=C2c3cccc4[nH]cc(c34)CC2N(C)C1 (stereo not given)
dose: 3.12 mg/kg/injection, schedule: Q01DX009 (ip), vehicle: Klucel (hydroxypropylcellulose) (HPC)
  T/C: 93 % of control
dose: 12.5 mg/kg/injection, schedule: Q01DX009 (ip), vehicle: Klucel (hydroxypropylcellulose) (HPC)
  T/C: 91 % of control
[8]
  T/C: 93 % of control
[9]
  T/C: 96 % of control

## O=C1C(CCSc2ccccc2)C(=O)N(c2ccccc2)C1c1ccccc1 (stereo not given)
[5]
  T/C: 116 % of control
[6]
  T/C: 113 % of control
[7]
  T/C: 110 % of control

## CN(C)CCN1C(=O)CC(c2ccccc2)Sc2ccccc21 (stereo not given)
dose: 3.12 mg/kg/injection, schedule: Q01DX009 (ip), vehicle: saline
  T/C: 115 % of control
[10]
  T/C: 112 % of control
[3]
  T/C: 107 % of control
[4]
  T/C: 97 % of control

## CC(=N\O)/C(C)=N/O.CC(=N\O)/C(C)=N/O.CCCC1CC[N-]CC1.CCCC1CC[N-]CC1.CCCC1CC[N-]CC1.CCCC1CC[N-]CC1.[Cl-].[Cl-].[Cl][Rh][Cl].[Rh+3]
dose: 0.19 mg/kg/injection, schedule: Q01DX009 (ip), vehicle: saline
  T/C: 104 % of control
dose: 0.38 mg/kg/injection, schedule: Q01DX009 (ip), vehicle: saline
  T/C: 107 % of control
dose: 0.75 mg/kg/injection, schedule: Q01DX009 (ip), vehicle: saline
  T/C: 104 % of control
dose: 1.5 mg/kg/injection, schedule: Q01DX009 (ip), vehicle: saline
  T/C: 103 % of control
dose: 3.0 mg/kg/injection, schedule: Q01DX009 (ip), vehicle: saline
  T/C: 105 % of control

## Cc1ccc(Cl)cc1N=Cc1ccccc1O
dose: 100.0 mg/kg/injection, schedule: Q04DX003 (ip), vehicle: saline with Tween-80
  T/C: 104 % of control
dose: 200.0 mg/kg/injection, schedule: Q04DX003 (ip), vehicle: saline with Tween-80
  T/C: 100 % of control
dose: 400.0 mg/kg/injection, schedule: Q04DX003 (ip), vehicle: saline with Tween-80
  T/C: 104 % of control

## COc1cc2c(cc1OC)C1CC(=O)C(CC(C)C)CN1CC2 (stereo not given)
dose: 6.25 mg/kg/injection, schedule: Q01DX009 (ip), vehicle: Klucel (hydroxypropylcellulose) (HPC)
  T/C: 100 % of control
[8]
  T/C: 100 % of control
[9]
  T/C: 95 % of control
[5]
  T/C: 97 % of control

## COC(=O)[C@@]12OC[C@]34[C@H]([C@@H](O)[C@@H]1O)[C@@]1(C)CC(=O)C(O)=C(C)[C@@H]1C[C@H]3OC(=O)[C@H](OC(=O)/C=C(\C)C(C)C)[C@@H]24
dose: 0.03 mg/kg/injection, schedule: Q01DX009 (ip), vehicle: saline + alcohol
  T/C: 122 % of control
dose: 0.12 mg/kg/injection, schedule: Q01DX009 (ip), vehicle: other
  T/C: 169 % of control
dose: 0.12 mg/kg/injection, schedule: Q01DX009 (ip), vehicle: saline + alcohol
  T/C: 153 % of control
dose: 0.25 mg/kg/injection, schedule: Q01DX009 (ip), vehicle: other
  T/C: 155 % of control
dose: 0.25 mg/kg/injection, schedule: Q01DX009 (ip), vehicle: saline + alcohol
  T/C: 154 % of control
dose: 0.5 mg/kg/injection, schedule: Q01DX009 (ip), vehicle: other
  T/C: 160 % of control
dose: 0.5 mg/kg/injection, schedule: Q01DX009 (ip), vehicle: saline + alcohol
  T/C: 154 % of control and 157 % of control
dose: 1.0 mg/kg/injection, schedule: Q01DX009 (ip), vehicle: other
  T/C: 164 % of control
dose: 1.0 mg/kg/injection, schedule: Q01DX009 (ip), vehicle: saline + alcohol
  T/C: 158 % of control and 164 % of control
dose: 2.0 mg/kg/injection, schedule: Q01DX009 (ip), vehicle: saline + alcohol
  T/C: 177 % of control
dose: 125.0 micrograms/kg/injection, schedule: Q01DX009 (ip), vehicle: saline + alcohol
  T/C: 160 % of control
dose: 250.0 micrograms/kg/injection, schedule: Q01DX009 (ip), vehicle: saline + alcohol
  T/C: 160 % of control
dose: 500.0 micrograms/kg/injection, schedule: Q01DX009 (ip), vehicle: saline + alcohol
  T/C: 168 % of control
dose: 1000.0 micrograms/kg/injection, schedule: Q01DX009 (ip), vehicle: saline + alcohol
  T/C: 164 % of control
dose: 2000.0 micrograms/kg/injection, schedule: Q01DX009 (ip), vehicle: saline + alcohol
  T/C: 97 % of control

## O=c1ncccn1[C@@H]1O[C@H](CO)[C@H](O)C1O (stereo not given in full)
[4]
  T/C: 119 % of control
[11]
  T/C: 115 % of control
dose: 400.0 mg/kg/injection, schedule: Q01DX009 (ip), vehicle: saline
  T/C: 166 % of control

## CC(=O)Oc1[nH]c(=O)c2cccc3c2c1CCC3
dose: 25.0 mg/kg/injection, schedule: Q01DX009 (ip), vehicle: saline with Tween-80
  T/C: 106 % of control
dose: 50.0 mg/kg/injection, schedule: Q01DX009 (ip), vehicle: saline with Tween-80
  T/C: 107 % of control
dose: 100.0 mg/kg/injection, schedule: Q01DX009 (ip), vehicle: saline with Tween-80
  T/C: 115 % of control
dose: 200.0 mg/kg/injection, schedule: Q01DX009 (ip), vehicle: saline with Tween-80
  T/C: 114 % of control
dose: 400.0 mg/kg/injection, schedule: Q01DX009 (ip), vehicle: saline with Tween-80
  T/C: 105 % of control

## CC(COC(=O)c1ccccc1)(COC(=O)c1ccccc1)COC(=O)c1ccccc1
[5]
  T/C: 110 % of control
[6]
  T/C: 107 % of control
[7]
  T/C: 100 % of control

## CN(C)CC/C=C1\c2ccccc2CN(C)c2ccccc21
[10]
  T/C: 102 % of control
[3]
  T/C: 107 % of control
[4]
  T/C: 94 % of control
[11]
  T/C: 99 % of control

Reference: PubChem BioAssay AID192 (DTP/NCI, 2004)
